According to patent US11578055B2, “Triazacyclododecansulfonamide (“TCD”)-based protein secretion inhibitors” (KEZAR LIFE SCIENCES, priority 2018, dated 2023):
pEC50, pIC50: −log10 of the molar value. Like-named read-outs stand apart in the source and are kept apart here.

Key:
[1] = test system: Human PBMC; test: Human PBMC CellTiter-Glo viability; type: cell-based; details: no stimulation, 24 hours
Method: (§1) Human PBMC were freshly isolated from whole blood collections of 3 normal donors utilizing density gradient centrifugation followed by red blood cell lysis. PBMC from each donor were assayed separately. Cells were suspended in RPMI 1640 media supplemented with 5% fetal bovine serum, 2 mM L-glutamine, 10 mM HEPES, and 1× penicillin/streptomycin. PBMC were seeded at 200,000 cells/well in 96-well round-bottom plates either without stimulation or with stimulation by lipopolysaccharide (LPS, 1 μg/mL) or antibodies against human CD3 (plate-bound, 2 μg/mL) and human CD28 (soluble, 2 μg/mL). Serial dilutions of compound in DMSO/media were simultaneously added and PBMC were incubated at 37° C., 5% CO2 for 24 hours. After 24 hours, plates were centrifuged and half of the supernatant volume removed for cytokine analysis by electrochemiluminescent immunoassay (U-PLEX® Biomarker Multiplex, Meso Scale Discovery). For viability analysis, CellTiter-Glo® (Promega) was added to the remaining material in each well and quantified via luminescent plate reader.

[2] = In Vitro Microsome Stability Assay (human); type: in vitro ADME
Procedure, shortened: (§2)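 Species liver microsomes in potassium phosphate buffer were preincubated at 37 °C for 3–5 min with test compound (added from 0.25 mM DMSO stock), then started with NADPH. Samples at 0 and 30 min were quenched with acetonitrile containing internal standard and analysed by LC-MS/MS; % remaining at 30 min used analyte/IS AUC ratios relative to t=0.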

[3] = test system: GM-CSF; test: Human PBMC Cytokine Assay: GM-CSF; type: cell-based; details: anti-CD3/CD28 stimulation, 24 hours
Method: as §1

[4] = test system: full length TNFα (amino acids 1-233) fused to Gaussia Luciferase; test: Dox Induced TNFα-FL-Gluc Assay; type: cell-based; details: 24 hr, read-out: 24 hr Dox Inducible TNFaFLGluc 293FRT/TO: Mean IC50
Procedure, shortened: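 Stable Flp-In 293 T-REx line expressing doxycycline-inducible full-length TNFα fused to Gaussia luciferase; cells plated the day before, then treated with compound dilutions in doxycycline-containing medium at 37° C, 5% CO2. Unspecified stereocentres mean stereoisomer mixtures were tested.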

[5] = In Vitro Microsome Stability Assay (monkey); type: in vitro ADME
Procedure, shortened: as §2

[6] = test system: full length IL-2 (amino acids 1-153) fused to Gaussia Luciferase; test: Dox Induced IL2-FL-Gluc Assay; type: cell-based; details: 24 hr, read-out: 24 hr Dox Inducible IL2FLGluc 293FRT/TO: Mean IC50
Procedure, shortened: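 Flp-In 293 T-REx stable line expressing full-length IL-2 (aa 1-153) with C-terminal Gaussia luciferase fusion under doxycycline-inducible control. Cells plated the day before; compound dilutions added in DMSO/media containing doxycycline, incubated at 37° C, 5% CO2.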

[7] = test system: IL-2; test: Human PBMC Cytokine Assay: IL-2; type: cell-based; details: anti-CD3/CD28 stimulation, 24 hours
Method: as §1

[8] = test system: multiple myeloma cell line NCl-H929; test: H929 Cell Viability Assay; type: cell-based, human; details: Homo sapiens, NCI-H929, 48 h
Procedure, shortened: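 NCI-H929 myeloma cells in RPMI 1640 with 10% FBS were treated with compound dilutions for 48 h at 37 °C, and viability was then read by CellTiter-Glo luminescence. Compounds drawn without stereochemistry were tested as stereoisomer mixtures.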

[9] = In Vitro Microsome Stability Assay (mouse); type: in vitro ADME
Procedure, shortened: as §2

[10] = test system: IL-1β; test: Human PBMC Cytokine Assay: IL-1β; type: cell-based; details: LPS stimulation, 24 hours
Method: as §1

[11] = test system: HER3 signal sequence plus 4 amino acids fused to Gaussia Luciferase (HER3-ss+4aa/Gaussia Luciferase); test: Dox Induced HER3-ss-Gluc Assay; type: cell-based; details: 24 hr, doxycycline induced, Flp-In 293 T-REx cells; read-out: 24 hr Dox Inducible Her3(ss + 4) Gluc 293FRT/TO: Mean 1050
Procedure, shortened: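 Stable Flp-In 293 T-REx line expressing HER3 signal sequence+4aa/Gaussia luciferase under doxycycline-inducible control. Cells plated the day before; compound dilutions added in doxycycline-containing medium and incubated at 37° C, 5% CO2.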

[12] = human liver microsomes, 30 min w/ NADPH
[13] = monkey liver microsomes, 30 min w/ NADPH
[14] = mouse liver microsomes, 30 min w/ NADPH

| Liver Microsome Stability-% Left after 30 min w/ NADPH (%) Human ([2]; human, 30 min, NADPH) | IC50 [3] | pIC50 ([4]; 293FRT/TO) | Liver Microsome Stability-% Left after 30 min w/ NADPH (%) Monkey ([5]; monkey, 30 min, NADPH) | pIC50 ([6]; 293FRT/TO) | IC50 [7] | pEC50 ([8]; H929, read-out: 48 hr H929 Viability Celltiter-Glo: Mean EC50) | Liver Microsome Stability-% Left after 30 min w/ NADPH (%) Mouse ([9]; mouse, 30 min, NADPH) | IC50 [10] | Liver Microsome Stability-% Left after 30 min w/ NADPH (%) Human [2, 12] | pIC50 [11] | pIC50 ([4]; Dox inducible, 293FRT/TO cells) | Liver Microsome Stability-% Left after 30 min w/ NADPH (%) Monkey [5, 13] | pIC50 ([6]; Dox inducible, 293FRT/TO cells) | pEC50 ([8]; H929, Celltiter-Glo) | Liver Microsome Stability-% Left after 30 min w/ NADPH (%) Mouse [9, 14] | Compound | IC50 [1] |
| --- | --- | --- | --- | --- | --- | --- | --- | --- | --- | --- | --- | --- | --- | --- | --- | --- | --- |
| 39.7% | 165 nM | 6.31 | 32.7% | 7.30 | 31 nM | 6.65 | 49.6% | > 25000 nM |  |  |  |  |  |  |  | C[C@H]1CN(S(=O)(=O)c2ccc(N(C)C)cc2)CCCN(CC2CCCCC2)CCCN(S(=O)(=O)N2CCc3cc(Cl)ccc3C2)C1 [A87] | > 25000 nM |
|  | 25 nM |  |  |  | 8 nM |  |  | > 25000 nM | 48.8% | 7.96 | 6.72 | 14.2% | 7.67 | 6.55 | 28% | COc1cc(F)ccc1N1CCN(S(=O)(=O)N2CCCN(CC3CCCCC3)CCCN(S(=O)(=O)c3ccc(N(C)C)cc3)C[C@H](C)C2)CC1 [A137] | > 25000 nM |
|  | 19 nM |  |  |  | 10 nM |  |  | > 25000 nM | 13.7% | 7.96 | 6.81 | 2.8% | 7.90 | 6.75 | 11.6% | COc1cc(F)ccc1N1CCN(S(=O)(=O)N2CCCN(CC3CCCCC3)CCCN(S(=O)(=O)c3ccc(N(C)C)cc3)C[C@H](C)C2)C[C@H]1C [A177, 4-{[(3S)-9-(cyclohexylmethyl)-5-{[(3 R)-4-(4-fluoro-2-methoxyphenyl)-3-methylpiperazin-1-yl]sulfonyl}-3-methyl-1,5,9-triazacyclododecan-1-yl]sulfonyl}-N,N-dimethylaniline] | > 25000 nM |
|  |  |  |  |  |  |  |  |  | 4.28% | 6.56 | 5.91 | 3.98% | 6.51 | 5.57 | 4.55% | C[C@H]1CN(S(=O)(=O)c2ccc(N(C)C)cc2)CCCN(CC2CCCCC2)CCCN(S(=O)(=O)N2CCc3c(C#N)cccc3C2)C1 [A151, 2-{[(3S)-9-(cyclohexylmethyl)-5-[4-(dimethylamino)benzenesulfonyl]-3-methyl-1,5,9-triazacyclododecan-1-yl]sulfonyl}-1,2,3,4-tetrahydroisoquinoline-5-carbonitrile] |  |
